# Laboratory results: patent US11879145B2, “Reagents and methods for replication, transcription, and translation in semi-synthetic organisms” (The Scripps Research Institute, priority 2019, dated 2024)
# Tested on: sfGFP^151(AXC)
# Experiment: In vivo translation screen of XTPs/YTPs: total sfGFP fluorescence
# Type: cell-based, E. coli
# Description: In vivo Translation Screen of XTPs/YTPs. An overnight culture of the SSO strain ML2 carrying the pGEX-MbPylRS TetR plasmid was grown in 2×YT supplemented with 50 mM potassium phosphate, […] chloramphenicol and 100 μg/mL carbenicillin (herein referred to in this section as “media”), then diluted back to an OD600 of 0.03 in the same media and grown to an OD600 of 0.4 to 0.6. The culture was then chilled with shaking over ice-water for 15 minutes then pelleted by centrifugation at 3,200×g for 10 min. Cells were then resuspended and washed with ice-cold ddH2O twice then resuspended in ice-cold ddH2O to OD600 of 55-65. The electrocompetent cells (50 μL) and 1 ng of Golden Gate assembled plasmid with the UBP within the sfGFP and tRNAPyl genes (see Golden Gate Assembly of Plasmids) were transferred to a pre-chilled electroporation cuvette (0.2-cm-gap), then electroporated (Gene Pulser II; Bio-Rad) according to manufacturer's recommendations (voltage […], capacitor 2.5 μF, resistor 200Ω), and then immediately diluted with 950 μL of media. An aliquot (40 μL) of the transformation was then diluted five-fold in media supplemented with dCNMOTP (25 μM) and dTPT3TP (10 μM) for a final volume of 200 μL then allowed to recover for 1 h shaking at 37° C. Two-fold dilutions of the recovery were plated onto solid media supplemented with zeocin (50 μg/mL), dCNMOTP (10 μM), dTPT3TP (10 μM), and agar (2% w/v), then grown at 37° C. for 18 h. Single colonies were picked and grown in media (300 μL) supplemented with 50 μg/mL zeocin and provided dCNMOTP (25 μM) and dTPT3TP (10 μM) (herein afterward referred to in this section as “growth media”). The culture was monitored for cell growth (Envision 2103 Multilabel Plate Reader with a 590/20 nm filter) and then collected at an OD600˜1.0. An aliquot (50 μL) was subjected to plasmid isolation using the ZR Plasmid Prep Kit (Zymo Research). Isolated plasmids were then subjected to the streptavidin gel shift assay described below (using primers P3-4 and P5-6, Table S1) to determine UBP retention.
# A colony with excellent UBP retention was then diluted to an OD600˜0.01 in growth media and grown to OD600˜0.4-0.6. This culture was then divided into multiple 300 μL cultures and for the screen of XTP analogs, each was provided with the corresponding XTP (at either 25 μM or 250 μM) or ddH2O for “−XTP” samples, TPT3TP (30 μM), and AzK (10 mM). For the screen of YTP analogs, each 300 μL culture was provided with the corresponding YTP (at either 25 μM or 250 μM) or ddH2O for “−YTP” samples, NaMTP (250 μM), and AzK (10 mM). Samples were shielded from light after addition of AzK to prevent photodegradation. These samples were then grown at 37° C. for 20 min before adding 1 mM IPTG and grown at 37° C. for an additional 1 h to induce T7 RNAP and transcription of tRNAPyl and PylRS. From this point on, cells were monitored for growth and fluorescence. Expression of sfGFP was then induced with anhydrotetracycline (100 ng/mL). After an additional 3 h of growth at 37° C., cells were collected (230 μL for affinity purification of sfGFP), cooled, and then pelleted and stored at −80° C. before protein purification.
# An SAR analysis was initiated with NaMTP and the nine XTP analogs. Based on performance in the dXTP screen described above, and to eliminate variable loss at the DNA level as a complicating factor, the unnatural information was encoded with the dCNMO-dTPT3 UBP. Additionally, the E. coli strain ML2, which expresses the nucleoside triphosphate transporter PtNTT2, but has also been genetically engineered for higher fidelity replication of the UBP by deletion of the gene encoding RecA (as is common in cloning strains) and overexpression of DNA Pol II was used. The same plasmid described above in Examples 1A and 1, harboring sfGFP^151(AXC) and tRNA^Pyl(GYT), was used, and to focus the screen to a single unnatural ribonucleotide, the M. mazei Pyl tRNA was transcribed in the presence of 30 μM TPT3TP. […]
structure (smiles),measurement,setting,value
COc1cc(C)c(F)cc1[C@@H]1O[C@H](COP(=O)(O)OP(=O)(O)OP(=O)(O)O)[C@@H](O)[C@H]1O [Compound 5FMTP],More fluorescence than MMO2TP,XTP 25 μM,34%
same,Bulk fluorescence compared to cells grown with NaMTP at the same concentration,XTP 250 μM,90%
